The Ki is the dissociation constant of the complex between target and ligand, obtained from inhibition or displacement.

For this assay, the target named is c-MET (Homo sapiens, UniProt P08581). Briefly: Ki determination for the inhibition of c-MET (standard radiometric 33P-ATP kinase assay, polyE4Y substrate). The class given is biochemical. As to conditions: 1.0 nM c-Met, 35 μM ATP, 0.5 mg/mL polyE4Y, 20 min; competitive tight-binding fit. A digest of the protocol: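 Radiometric assay of 33P transfer from 33P-ATP (35 μM) to polyE4Y (0.5 mg/mL) by 1.0 nM c-Met in 100 mM HEPES pH 7.5, 10 mM MgCl2, 25 mM NaCl, 0.01% BSA, 1 mM DTT. TCA-quenched after 20 min, filter-captured, scintillation-counted; Ki fitted to a competitive tight-binding model.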
c-MET, sequence (P08581 25-1390): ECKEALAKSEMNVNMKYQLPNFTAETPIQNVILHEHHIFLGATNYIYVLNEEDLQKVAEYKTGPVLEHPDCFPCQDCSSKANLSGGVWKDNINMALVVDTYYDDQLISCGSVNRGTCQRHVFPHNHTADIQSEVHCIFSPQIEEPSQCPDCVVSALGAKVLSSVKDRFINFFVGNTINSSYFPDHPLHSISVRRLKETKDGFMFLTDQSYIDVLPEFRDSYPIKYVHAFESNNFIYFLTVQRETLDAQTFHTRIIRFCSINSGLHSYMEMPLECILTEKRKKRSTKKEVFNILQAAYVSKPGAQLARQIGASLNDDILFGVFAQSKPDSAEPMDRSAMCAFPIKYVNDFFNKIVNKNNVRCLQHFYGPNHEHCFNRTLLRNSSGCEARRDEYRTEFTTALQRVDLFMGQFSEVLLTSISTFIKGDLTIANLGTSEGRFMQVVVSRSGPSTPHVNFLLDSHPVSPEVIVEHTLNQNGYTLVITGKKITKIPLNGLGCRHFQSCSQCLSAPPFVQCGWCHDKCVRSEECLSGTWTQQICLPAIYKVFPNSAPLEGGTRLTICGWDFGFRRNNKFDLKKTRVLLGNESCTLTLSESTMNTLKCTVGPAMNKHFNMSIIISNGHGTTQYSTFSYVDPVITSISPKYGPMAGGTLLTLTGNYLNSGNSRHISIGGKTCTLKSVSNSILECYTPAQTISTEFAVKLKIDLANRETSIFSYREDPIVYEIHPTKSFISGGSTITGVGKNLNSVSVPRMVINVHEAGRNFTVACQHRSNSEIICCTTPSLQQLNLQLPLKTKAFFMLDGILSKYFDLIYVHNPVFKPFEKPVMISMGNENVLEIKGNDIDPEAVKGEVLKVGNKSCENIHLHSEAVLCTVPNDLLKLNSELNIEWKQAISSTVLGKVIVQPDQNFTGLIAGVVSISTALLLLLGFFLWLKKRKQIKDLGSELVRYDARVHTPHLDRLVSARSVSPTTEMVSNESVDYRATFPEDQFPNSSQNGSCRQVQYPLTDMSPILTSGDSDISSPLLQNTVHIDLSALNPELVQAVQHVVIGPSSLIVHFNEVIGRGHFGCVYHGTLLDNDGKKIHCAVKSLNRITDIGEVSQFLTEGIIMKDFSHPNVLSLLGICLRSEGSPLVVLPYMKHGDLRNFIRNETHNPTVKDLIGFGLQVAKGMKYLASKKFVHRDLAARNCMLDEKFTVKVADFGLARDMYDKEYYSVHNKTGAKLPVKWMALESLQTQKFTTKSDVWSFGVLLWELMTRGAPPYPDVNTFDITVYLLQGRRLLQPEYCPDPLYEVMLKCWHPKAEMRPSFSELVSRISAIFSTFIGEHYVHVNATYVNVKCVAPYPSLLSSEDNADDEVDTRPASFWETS
Compound `CC(=O)Nc1ccc(-c2cnc(N)c(-c3nnnn3-c3c(F)ccc(F)c3Cl)c2)cc1` [I-A-614] yielded a Ki of 100 to 1000 nM.
Turning to `COc1ccc(-c2cnc(N)c(-c3nncn3-c3cccc(Cl)c3Cl)c2)cc1OC` [I-A-77], the Ki fell in the range of 100 to 1000 nM.
The compound `CCOC(=O)CC(=O)Nc1ccc(-c2cnc(N)c(-c3nnnn3-c3cccc(F)c3F)c2)cc1` [I-A-196] returned an inhibitory constant (Ki) of 100 to 1000 nM.
Regarding `Nc1ncc(-c2cnn(C3CCN(CC(F)F)CC3)c2)cc1-c1nnnn1-c1cccc(F)c1F` [I-A-453], the inhibition constant Ki is ≤ 100 nM.
In the case of `Nc1cccc(-c2cnc(N)c(-c3nncn3-c3cccc(F)c3F)n2)c1` [I-A-12], the inhibition constant (Ki) was ≤ 100 nM.
`Cc1nn(C2CCNCC2)c(C)c1-c1cnc(N)c(-c2nnnn2-c2cccc(F)c2F)c1` [I-A-478] yielded a Ki of 100 to 1000 nM.
`Nc1ncc(-c2ccc(S(N)(=O)=O)s2)cc1-c1nnnn1-c1cccc(F)c1F` [I-A-187]: the inhibition constant Ki is ≤ 100 nM.
For the compound `Nc1ncc(-c2cccc(NC(=O)N3CCCC3)c2)cc1-c1nnnn1-c1cccc(F)c1F` [I-A-269], the Ki lay in the range of 100 to 1000 nM.
Regarding `Nc1nc2cc(F)c(-c3cnc(N)c(-c4nncn4-c4cccc(F)c4F)n3)cc2[nH]1` [I-A-56], the Ki is ≤ 100 nM.
With `Nc1ncc(-c2ccc(NC(=O)CN3CCCC3)cc2)cc1-c1nnnn1-c1cccc(F)c1F` [I-A-184], the Ki was ≤ 100 nM.
The figure for `COc1cc(O)ccc1-c1cnc(N)c(-c2nnnn2-c2cccc(F)c2F)c1` [I-A-220] is ≤ 100 nM; for `Nc1ncc(-c2ccc(C3CCNCC3)cc2)cc1-n1nnnc1-c1cccc(F)c1F` [I-E-3] it is 100 to 1000 nM.
In turn, `COC(=O)c1cccc(-c2cnc(N)c(-c3nnnn3-c3cccc(F)c3F)c2)c1` [I-A-317] returned a Ki of 100 to 1000 nM.
As to `CN(C)CC(=O)N1CCC(n2cc(-c3cnc(N)c(-c4nnnn4-c4cccc(Cl)c4F)c3)cn2)CC1` [I-A-444], the Ki is ≤ 100 nM.
`CC(=O)Nc1cccc(-c2cnc(N)c(-c3nnnn3-c3cccc(Cl)c3C)c2)c1` [I-A-565]: the Ki was 100 to 1000 nM.
With `CNc1ccc(-c2cnc(N)c(-c3nnnn3-c3cccc(F)c3F)c2)cc1C#N` [I-A-341] the figure was ≤ 100 nM; with `COc1cccc(-c2cnc(N)c(-c3nnnn3-c3cccc(F)c3F)c2)c1` [I-A-221], ≤ 100 nM; with `CC(=O)N(C)c1ccc(-c2cnc(N)c(-c3nnnn3-c3cccc(F)c3F)c2)cc1` [I-A-337], ≤ 100 nM.
The figure for `CN(C)Cc1ccc(-c2cnc(N)c(-c3nnnn3-c3c(F)ccc(Cl)c3F)c2)cc1` [I-A-377] is ≤ 100 nM; for `Nc1ncc(-c2cn(C3CCNCC3)nn2)cc1-c1nnnn1-c1cccc(F)c1F` [I-A-483, 3-(1-(2,3-Difluorophenyl)-1H-tetrazol-5-yl)-5-(1-(piperidin-4-yl)-1H-1,2,3-triazol-4-yl)pyridin-2-amine] it is ≤ 100 nM; for `Cc1nnc(-c2cnc(N)c(-c3nnnn3-c3cccc(F)c3F)c2)s1` [I-A-494] it is 100 to 1000 nM.
On to `CN1CCC(n2cc(-c3cnc(N)c(-c4nnnn4-c4cccc(Cl)c4F)c3)cn2)CC1` [I-A-436], for which the Ki is ≤ 100 nM.
With `Nc1ncc(-c2ccc(CN3CCC[C@H]3CO)cc2)cc1-c1nnnn1-c1cccc(Cl)c1Cl` [I-A-122], the inhibitory constant (Ki) is ≤ 100 nM.
With `Nc1ncc(-c2ccc(NC(=O)c3ccncc3)cc2)cc1-c1nnnn1-c1cccc(F)c1F` [I-A-280] the figure was ≤ 100 nM; with `COC(=O)C(C)NC(=O)Nc1ccc(-c2cnc(N)c(-c3nnnn3-c3cccc(F)c3F)c2)cc1` (stereo not shown) [I-A-331], ≤ 100 nM.
For the compound `Nc1ncc(-c2ccc(O)cc2)cc1-c1nnnn1-c1cccc(F)c1F` [I-A-144], the Ki was ≤ 100 nM.
On to `N#Cc1cccc(-c2cnc(N)c(-c3nnnn3-c3cccc(F)c3F)c2)c1` [I-A-228], for which the Ki lay in the range of 100 to 1000 nM.
The compound `Cc1ccc(-c2cnc(N)c(-c3nnnn3-c3cccc(F)c3F)c2)cc1` [I-A-255] came in with a Ki of 100 to 1000 nM.
With `Nc1ncc(-c2ccncc2)cc1-c1nnnn1-c1cccc(F)c1F` [I-A-490] the figure was 100 to 1000 nM.
With `Nc1ncc(-c2cnn(C3CCN(CCF)CC3)c2)cc1-c1nnnn1-c1cccc(F)c1F` [I-A-452], the Ki was ≤ 100 nM.
On to `Nc1ncc(-c2ccc(CN3CC[C@@H](O)C3)cc2)cc1-c1nnnn1-c1cccc(F)c1F` [I-A-130], for which the Ki was ≤ 100 nM.
With `Nc1ncc(-c2ccc(C3CCNCC3)s2)cc1-c1nnnn1-c1cccc(F)c1F` [I-A-415] the figure was ≤ 100 nM.
Consider `Nc1ncc(-c2cccc(N3CCNCC3)c2)cc1-c1nnnn1-c1cccc(F)c1F` [I-A-414], for which the inhibitory constant (Ki) was ≤ 100 nM.
The figure for `Nc1ncc(C2=CCN(C(=O)C[C@@H]3CCCN3)CC2)cc1-c1nnnn1-c1cccc(F)c1F` [I-A-505] is ≤ 100 nM; for `CS(=O)(=O)NCc1ccc(-c2cnc(N)c(-c3nnnn3-c3cccc(F)c3F)c2)cc1` [I-A-192] it is ≤ 100 nM; for `Nc1ncc(-c2ccc(CN3CCCC3)cc2)cc1-c1nnnn1-c1c(F)cccc1F` [I-A-615] it is ≤ 100 nM.
Compound `COc1c(F)cccc1-n1nnnc1-c1cc(-c2cnn(C3CCNCC3)c2)cnc1N` [I-A-638] returned a Ki of 100 to 1000 nM.
In turn, `CC(=O)Nc1cccc(-c2cnc(N)c(-c3nncn3-c3cccc(Cl)c3Cl)c2)c1` [I-A-73] registered an inhibition constant Ki of 100 to 1000 nM.
Consider `COCCC(=O)N1CC=C(c2cnc(N)c(-c3nnnn3-c3cccc(F)c3F)c2)CC1` [I-A-514], for which the Ki is ≤ 100 nM.
As to `CC(=O)Nc1ccc(-c2cnc(N)c(-c3nnnn3-c3cccc(F)c3F)c2)cc1F` [I-A-127], the inhibition constant Ki is ≤ 100 nM.
Compound `Nc1ncc(-c2cc(F)ccc2F)cc1-c1nnnn1-c1cccc(F)c1F` [I-A-294] yielded an inhibition constant (Ki) of 100 to 1000 nM.
As to `Nc1ncc(-c2cnn(C3CCN(CC4CC4)CC3)c2)cc1-c1nnnn1-c1cccc(F)c1F` [I-A-449], the Ki was ≤ 100 nM.
As for `Nc1ncc(-c2cnn(C3CCN(CC4CC4)CC3)c2)cc1-c1nnnn1-c1cccc(Cl)c1F` [I-A-472], the Ki is ≤ 100 nM.
As to `COc1cc2nc(N)[nH]c2cc1-c1cnc(N)c(-c2nnnn2-c2cccc(F)c2F)n1` [I-A-54], the Ki was ≤ 100 nM.
With `Nc1ncc(-c2cnn(C3CCNCC3)c2)cc1-c1nnnn1-c1cc(F)ccc1Cl` [I-A-637] the figure was 100 to 1000 nM.
In turn, `CC(=O)Nc1ccc(-c2cnc(N)c(-c3nnnn3-c3cc(Cl)ccc3C)c2)cc1` [I-A-576] gave a Ki of 100 to 1000 nM.
With `Nc1ncc(-c2cnn(CC3CCNC3)c2)cc1-c1nnnn1-c1cccc(F)c1F` (stereo not shown) [I-A-501] the figure was ≤ 100 nM.
With `Cc1cccc(-c2cnc(N)c(-c3nnnn3-c3cccc(F)c3F)c2)c1` [I-A-242], the Ki was ≤ 100 nM.
Take `Nc1ncc(-c2ccc(CN3CCC(CO)CC3)cc2)cc1-c1nnnn1-c1cccc(Cl)c1Cl` [I-A-96]: the Ki is ≤ 100 nM.
Take `Nc1ncc(C2=CCN(CC3CCOC3)CC2)cc1-c1nnnn1-c1cccc(F)c1F` (stereo not shown) [I-A-643]: the Ki lay within 100 to 1000 nM.
The figure for `Nc1ncc(-c2cnn([C@@H]3CCNC3)c2)cc1-c1nnnn1-c1cccc(Cl)c1F` [I-A-538] is ≤ 100 nM; for `CC(=O)N1CCC[C@@H]1C(=O)N1CC=C(c2cnc(N)c(-c3nnnn3-c3cccc(F)c3F)c2)CC1` [I-A-649] it is 100 to 1000 nM; for `Cc1ccccc1-c1cnc(N)c(-c2nnnn2-c2cccc(F)c2F)c1` [I-A-241] it is 100 to 1000 nM.
On to `Nc1ncc(C2=CCN(C(=O)CC3CCOCC3)CC2)cc1-c1nnnn1-c1cccc(F)c1F` [I-A-516], for which the Ki is ≤ 100 nM.
As to `Nc1ncc(-c2ccc(N3CC(CO)OC3=O)cc2)cc1-c1nnnn1-c1cccc(F)c1F` (stereo not shown) [I-A-372], the Ki is ≤ 100 nM.
Compound `Nc1ncc(-c2cnn(C3CCNCC3)c2)cc1-c1nnnn1-c1cc(Cl)ccc1Cl` [I-A-636] yielded an inhibition constant Ki of 100 to 1000 nM.
The figure for `Nc1ncc(-c2cnn(C3CCNCC3)c2)cc1-c1nnnn1-c1cccc(Cl)c1Cl` [I-A-371] is ≤ 100 nM; for `Nc1ncc(-c2cccnc2)cc1-c1nnnn1-c1cccc(Cl)c1Cl` [I-A-83] it is 100 to 1000 nM; for `Nc1ncc(-c2nc3c(s2)CNCC3)nc1-c1nnnn1-c1cccc(F)c1F` [I-A-537] it is 100 to 1000 nM.
Take `CN(C)Cc1ccc(-c2cnc(N)c(-c3nnnn3-c3cccc(Cl)c3)c2)cc1` [I-A-358]: the inhibition constant (Ki) was 100 to 1000 nM.
The compound `Nc1ncc(-c2ccc(CN3CCCC3)cc2)cc1-n1nnnc1-c1cccc(F)c1F` [I-E-4] returned an inhibition constant Ki of 100 to 1000 nM.
For the compound `Nc1ncc(-c2cccc(C(F)(F)F)c2)cc1-c1nncn1-c1cccc(F)c1F` [I-A-116], the Ki is 100 to 1000 nM.
The figure for `CCNC(=O)Nc1nc2cc(-c3cnc(N)c(-c4nnnn4-c4cccc(Cl)c4Cl)c3)c(F)cc2[nH]1` [I-A-93] is 100 to 1000 nM.
`Nc1ncc(-c2ccc(CN3CC[C@@H](O)C3)cc2)cc1-c1nnnn1-c1cccc(Cl)c1Cl` [I-A-119]: the Ki was ≤ 100 nM.
Turning to `CN(CCC#N)Cc1ccc(-c2cnc(N)c(-c3nnnn3-c3cccc(F)c3F)c2)cc1` [I-A-148], the Ki was ≤ 100 nM.
For `CN(C)CCn1cc(-c2cnc(N)c(-c3nnnn3-c3cccc(Cl)c3Cl)c2)cn1` [I-A-410], the Ki was ≤ 100 nM.
`Nc1ncc(-c2ccc(NC(=O)NC3CCCC3)cc2)cc1-c1nnnn1-c1cccc(F)c1F` [I-A-333] gave an inhibition constant (Ki) of 100 to 1000 nM.
In turn, `COc1ccc(F)cc1-n1nnnc1-c1cc(-c2ccc(CN3CCCC3)cc2)cnc1N` [I-A-602] displayed an inhibition constant Ki of 100 to 1000 nM.
As to `CC(=O)N1CCC(n2cc(-c3cnc(N)c(-c4nnnn4-c4cccc(F)c4F)c3)cn2)CC1` [I-A-455], the Ki is ≤ 100 nM.
Regarding `CC(=O)Nc1cccc(-c2cnc(N)c(-c3nnnn3-c3cc(Cl)ccc3F)c2)c1` [I-A-568], the Ki was 100 to 1000 nM.
Regarding `Nc1ncc(-c2ccc(CN3CCCC3)c([N+](=O)[O-])c2)cc1-c1nnnn1-c1cccc(F)c1F` [I-A-340], the Ki is ≤ 100 nM.
Regarding `Cn1cc(-c2cccc(Cl)c2Cl)c(-c2cc(-c3cnn(C4CCNCC4)c3)cnc2N)n1` [I-B-22], the Ki was ≤ 100 nM.
Take `CC1CCCN1Cc1ccc(-c2cnc(N)c(-c3nnnn3-c3cccc(F)c3F)c2)cc1` (stereo not shown) [I-A-209]: the Ki was ≤ 100 nM.

These data come from patent US8232406B2, “c-MET protein kinase inhibitors” (Vertex Pharmaceuticals Incorporated, priority 2006, dated 2012).
